Data from BindingDB's records for doi:10.1016/j.bmcl.2018.05.009 (Vanderbilt University Medical Center, 2018).

Key:
[1] = target: T1, Muscarinic acetylcholine receptor M1 (Homo sapiens, UniProt P11229); assay: ChEBML_1712853
T1 sequence (P11229 whole entry): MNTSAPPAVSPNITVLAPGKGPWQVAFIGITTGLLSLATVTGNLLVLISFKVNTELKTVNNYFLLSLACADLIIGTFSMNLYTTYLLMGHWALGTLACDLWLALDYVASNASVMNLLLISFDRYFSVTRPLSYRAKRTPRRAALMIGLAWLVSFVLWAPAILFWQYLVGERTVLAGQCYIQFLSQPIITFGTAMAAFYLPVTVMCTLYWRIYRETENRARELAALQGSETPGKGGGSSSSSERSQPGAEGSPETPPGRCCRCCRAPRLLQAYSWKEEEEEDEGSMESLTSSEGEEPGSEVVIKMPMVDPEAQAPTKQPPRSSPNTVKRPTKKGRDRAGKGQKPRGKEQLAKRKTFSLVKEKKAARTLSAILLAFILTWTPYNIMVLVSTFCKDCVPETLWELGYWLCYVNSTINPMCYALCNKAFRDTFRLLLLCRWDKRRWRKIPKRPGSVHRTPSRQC
Excerpt: Positive allosteric modulation of human muscarinic acetylcholine M1 receptor expressed in CHO-NFAT cells assessed as potentiation of acetylcholine-induced calcium mobilization after 4 hrs by CCF4-AM dye-based assay

[2] = target: T1, Muscarinic acetylcholine receptor M1; assay: Positive allosteric modulation of human muscarinic acetylcholine M1 receptor expressed in CHO cells assessed as potentiation of acetylcholine-induced calcium mobilization

## O=C(N[C@H]1CCCC[C@@H]1O)C1CN(Cc2ccc(-n3cccn3)cc2)c2ccccc2O1 (some centres not stated)
[1]
  EC50: 794 nM

## Cn1cc(-c2ccc(CN3CC(C(=O)N[C@H]4CCCC[C@@H]4O)Oc4ccccc43)cn2)cn1 (some centres not stated)
[2]
  EC50: 178 nM
